Test results taken from patent publication US8513161B2, “Enhancement of plant growth” (Valent Biosciences Corporation, priority 2007, dated 2013).
Structures can show the parent of a compound that is named as a salt.

System: canola
Assay: Field study, seed treatment of canola
Type: in vivo, Brassica napus
Conditions: for vigor rating (1 = low and 5 = high) of canola plants: 19 days after planting, control 3.8
Experimental: For the field studies, the seed was treated with a seed treatment formulation containing clothianidin. The rate of clothianidin was dependent on the crop species. The seed treatment formulations were amended with the appropriate concentrations of either PESA or the sodium salt of PESA. Crops were planted and grown under standard agricultural practices, and evaluated at the times indicated. The sodium salt of PESA was prepared as described above, and was used in seed treatment either alone or in the presence of clothianidin. Canola (Brassica napus) seed was treated with 0 or 400 grams of clothianidin/100 kg (220 pound) of seed and with 0, 22, 55, or 137.5 grams PESA salt/100 kg seed.

O=C(O)CCC(=O)NCCc1ccccc1 [PESA salt]
vigor rating (1 = low and 5 = high) of canola plants (sodium salt of PESA 22 g/100 kg seed alone): 3.8
vigor rating (1 = low and 5 = high) of canola plants (sodium salt of PESA 55 g/100 kg seed alone): 4
vigor rating (1 = low and 5 = high) of canola plants (sodium salt of PESA 137.5 g/100 kg seed alone): 4
safening of canola (conclusion from Table 11): safened canola against clothianidin-induced vigor reduction
